One data set is described as follows: physchem. The conditions noted are these: water.
In data set [1] the test system is carrageenin-induced rat foot edema. The data set is described as follows: standard carrageenin-induced rat foot edema test, oral. Particulars: 32 mg./kg. oral (gavage), carrageenin-injected hind paw, 3 h after carrageenin, vs vehicle control, read-out: % Inhibition of edema formation. In kind it is in vivo. As for the experimental part:
In this test, anti-inflammatory activity is determined as the percent inhibition of edema formation in the hind paw of male albino rats (weighing 150-190 g.) in response to a sub-plantar injection of carrageenin. The carrageenin is injected as a 1% aqueous suspension (0.05 ml.) one hour after oral administration of the drug, which is normally given in the form of an aqueous solution. Edema formation is then assessed by measuring the volume of the injected paw initially as well as three hours after the carrageenin injection. The increase in volume three hours after carrageenin injection constitutes the individual response. Compounds are considered active if the difference in response between the drug-treated animals (six rats/group) and a control group receiving the vehicle alone is significant on comparison with the results afforded by a standard compound like phenylbutazone at 33 mg./kg., via the oral route of administration.
The following oxyethyl oxicam final products of Examples 1B, 1C and 5, respectively, were tested for anti-inflammatory activity in rats, using the standard rat foot edema test, according to the general procedure described by C. A. Winter et al., as first reported in the Proceedings of the Society for Experimental Biology and Medicine, Vol. 111, p. 544 (1962).

For data set [2] the following is noted: compared with piroxicam at an equivalent dose level and other NSAI agents.

Structures are written as SMILES. Values after ≈ are worked out from the molar mass of the structure shown.

`CC(C)Cc1ccc(C(C)C(=O)O)cc1` (centres unmarked) [Ibuprofen]: in the data set “physchem”, the concentration in solution (solubility) was 0.3 mg/mL (≈ 1.45 mM). The same measure, in the same setting: the figure for `COc1ccc2c(c1)c(CC(=O)O)c(C)n2C(=O)c1ccc(Cl)cc1` [Indomethacin] is 0.7 mg/mL (≈ 1.96 mM); for `CN1C(C(=O)Nc2ccccn2)=C(O)c2ccccc2S1(=O)=O` [Piroxicam, 4-hydroxy-2-methyl-N-(2-pyridinyl)-2H-1,2-benzothiazine-3-carboxamide 1,1-dioxide] it is 26.5 mg/mL (≈ 80 mM). In the case of `CN1C(C(=O)Nc2ccccn2)=C(OCCO)c2ccccc2S1(=O)=O` [Product of Example 1B, 4-(2-hydroxyethyloxy)-2-methyl-N-(2-pyridinyl)-2H-1,2-benzothiazine-3-carboxamide 1,1-dioxide], the inhibition at 32 mg/kg in data set [1] is 48%. In addition, in data set [2], the “oral absorption potential, comparison in words” value is “highest oral absorption potential seen in the series of compounds tested”. Further, the solubility in the data set “physchem” worked out at 470 mg/mL (≈ 1250 mM). Turning to `CN1C(C(=O)Nc2cccc[n+]2CCO)=C([O-])c2ccccc2S1(=O)=O` [Product of Example 1C, N-[1-(2-hydroxyethyl)-2-pyridinium]-2-methyl-2H-1,2-benzothiazine-3-carboxamide 1,1-dioxide 4-enolate], the inhibition at 32 mg/kg in data set [1] came out at 16%.

With `Cc1cccc(NC(=O)C2=C(OCCO)c3ccccc3S(=O)(=O)N2C)n1` [Product of Example 5, 4-(2-hydroxyethyloxy)-2-methyl-N-(6-methyl-2-pyridinyl)-2H-1,2-benzothiazine-3-carboxamide 1,1-dioxide], the inhibition at 32 mg/kg in data set [1] worked out at 13%.
